Results published in patent US6737383B1, “Herbicidal oxadiazolidines” (priority 1999, dated 2004).

Assays:
pigweed = test: Test B pre/postemergence pigweed; assay type: in vivo, Amaranthus retroflexus
How it was run: (§1)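 Test chemicals in a non-phytotoxic solvent mixture with surfactant were sprayed preemergence onto planted seeds and postemergence onto plants 2 to 18 cm tall (1- to 4-leaf stage). After twelve to sixteen days in a greenhouse, injury was visually rated against untreated controls from 0 (no effect) to 10 (complete control).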

rape = test: Test B pre/postemergence rape; assay type: in vivo, Brassica napus
How it was run: as §1

giant foxtail = test: Test B pre/postemergence giant foxtail; assay type: in vivo, Setaria faberii
How it was run: as §1

morningglory = test: Test B pre/postemergence morningglory; assay type: in vivo, Ipomoea hederacea
How it was run: as §1

[1] = Postemergence, Rate 62 g/ha, scale 0 to 10, 0 is no effect, 10 is complete control
[2] = Postemergence, Rate 250 g/ha, scale 0 to 10, 0 no effect, 10 complete control
[3] = Preemergence, Rate 31 g/ha, visual rating, scale 0 to 10 (0 no effect, 10 complete control)
[4] = Preemergence, Rate 62 g/ha, scale 0 to 10, 0 is no effect, 10 is complete control
[5] = Preemergence, Rate 125 g/ha, scale 0 to 10 (0 no effect, 10 complete control)
[6] = Preemergence, Rate 250 g/ha, scale of 0 to 10 where 0 is no effect and 10 is complete control
[7] = Rate 31 g/ha, Postemergence, scale 0 to 10
[8] = Rate 125 g/ha, Postemergence, scale 0 to 10, 0 no effect, 10 complete control
[9] = Postemergence, Rate 250 g/ha, scale 0 to 10, 0 is no effect, 10 is complete control
[10] = Postemergence, Rate 500 g/ha, scale of 0 to 10 where 0 is no effect and 10 is complete control
[11] = Preemergence, Rate 62 g/ha, scale 0 to 10 (0 no effect, 10 complete control)
[12] = Preemergence, Rate 125 g/ha, scale of 0 to 10 where 0 is no effect and 10 is complete control
[13] = Preemergence, Rate 250 g/ha, scale 0 to 10, 0 is no effect, 10 is complete control
[14] = Preemergence, Rate 500 g/ha, scale 0 to 10, 0 is no effect, 10 is complete control
[15] = Postemergence, Rate 125 g/ha, scale 0 to 10, 0 is no effect, 10 is complete control
[16] = Rate 62 g/ha, Postemergence, scale of 0 to 10 where 0 is no effect and 10 is complete control
[17] = Postemergence, Rate 31 g/ha, visual rating, scale 0 to 10 (0 no effect, 10 complete control)
[18] = Preemergence, Rate 62 g/ha, scale of 0 to 10 where 0 is no effect and 10 is complete control
[19] = Rate 62 g/ha, Postemergence, scale 0 to 10 (0 no effect, 10 complete control)
[20] = Rate 125 g/ha, Postemergence, scale of 0 to 10 where 0 is no effect and 10 is complete control
[21] = Rate 125 g/ha, Preemergence, scale of 0 to 10 where 0 is no effect and 10 is complete control
[22] = Rate 250 g/ha, Postemergence, scale of 0 to 10 where 0 is no effect and 10 is complete control
[23] = Postemergence, Rate 125 g/ha, scale of 0 to 10 where 0 is no effect and 10 is complete control
[24] = Postemergence, Rate 250 g/ha, scale of 0 to 10, 0 is no effect, 10 is complete control
[25] = Preemergence, Rate 500 g/ha, scale of 0 to 10 where 0 is no effect and 10 is complete control
[26] = Preemergence, Rate 500 g/ha, scale 0 (no effect) to 10 (complete control)
[27] = Rate 500 g/ha, Postemergence, 0 to 10 scale (0 no effect, 10 complete control)
[28] = Rate 500 g/ha, Postemergence, scale 0 to 10, 0 no effect, 10 complete control

SMILES: CC(C)N(C(=O)n1oc(=O)n(-c2ccc(F)cc2F)c1=O)c1ccc(F)cc1F [Compound 22]
- Redroot pigweed plant response rating (pigweed; [1]): 0
- Redroot pigweed plant response rating (pigweed; [2]): 2
- Redroot pigweed plant response rating (pigweed; [3]): 0
- Plant response rating, Redroot pigweed (pigweed; [4]): 0
- Plant response rating, Redroot pigweed (pigweed; [5]): 2
- Plant response rating, Redroot pigweed (pigweed; [6]): 5
- Redroot pigweed plant response rating (pigweed; [7]): 0
- Redroot pigweed plant response rating (pigweed; [8]): 1
- Rape plant response rating (rape; [1]): 0
- Rape plant response rating (rape; [2]): 0
- Rape plant response rating (rape; [3]): 0
- Plant response rating, Rape (rape; [4]): 0
- Plant response rating, Rape (rape; [5]): 3
- Plant response rating, Rape (rape; [6]): 3
- Rape plant response rating (rape; [7]): 0
- Rape plant response rating (rape; [8]): 0
- Giant foxtail plant response rating (giant foxtail; [1]): 0
- Giant foxtail plant response rating (giant foxtail; [2]): 4
- Giant foxtail plant response rating (giant foxtail; [3]): 3
- Plant response rating, Giant foxtail (giant foxtail; [4]): 3
- Plant response rating, Giant foxtail (giant foxtail; [5]): 4
- Plant response rating, Giant foxtail (giant foxtail; [6]): 7
- Giant foxtail plant response rating (giant foxtail; [7]): 0
- Giant foxtail plant response rating (giant foxtail; [8]): 2
- Morningglory plant response rating (morningglory; [1]): 0
- Morningglory plant response rating (morningglory; [2]): 2
- Morningglory plant response rating (morningglory; [3]): 0
- Plant response rating, Morningglory (morningglory; [4]): 0
- Plant response rating, Morningglory (morningglory; [5]): 0
- Plant response rating, Morningglory (morningglory; [6]): 0
- Morningglory plant response rating (morningglory; [7]): 0
- Morningglory plant response rating (morningglory; [8]): 2

SMILES: CC(C)N(C(=O)n1oc(=O)n(CC2(C)COC2)c1=O)c1ccccc1 [Compound 420]
- Plant response rating, Redroot pigweed (pigweed; [9]): 0
- Redroot pigweed plant response rating (pigweed; [10]): 0
- Plant response rating, Redroot pigweed (pigweed; [11]): 0
- Plant response rating, Redroot pigweed (pigweed; [12]): 2
- Redroot pigweed plant response rating (pigweed; [13]): 2
- Redroot pigweed plant response rating (pigweed; [14]): 5
- Plant response rating, Rape (rape; [9]): 0
- Rape plant response rating (rape; [10]): 0
- Plant response rating, Rape (rape; [11]): 0
- Plant response rating, Rape (rape; [12]): 0
- Rape plant response rating (rape; [13]): 0
- Rape plant response rating (rape; [14]): 8
- Plant response rating, Giant foxtail (giant foxtail; [15]): 8
- Plant response rating, Giant foxtail (giant foxtail; [9]): 8
- Giant foxtail plant response rating (giant foxtail; [10]): 9
- Plant response rating, Giant foxtail (giant foxtail; [11]): 5
- Plant response rating, Giant foxtail (giant foxtail; [12]): 9
- Giant foxtail plant response rating (giant foxtail; [13]): 10
- Giant foxtail plant response rating (giant foxtail; [14]): 10
- Giant foxtail plant response rating (giant foxtail; [16]): 7
- Plant response rating, Morningglory (morningglory; [9]): 4
- Morningglory plant response rating (morningglory; [10]): 10
- Plant response rating, Morningglory (morningglory; [11]): 0
- Plant response rating, Morningglory (morningglory; [12]): 0
- Morningglory plant response rating (morningglory; [13]): 2
- Morningglory plant response rating (morningglory; [14]): 8

SMILES: CC(C)N(C(=O)n1oc(=O)n(CCCCF)c1=O)c1ccc(F)cc1 [Compound 289]
- Redroot pigweed plant response rating (pigweed; [17]): 0
- Redroot pigweed plant response rating (pigweed; [3]): 5
- Redroot pigweed plant response rating (pigweed; [18]): 5
- Redroot pigweed plant response rating (pigweed; [6]): 8
- Redroot pigweed plant response rating (pigweed; [19]): 0
- Redroot pigweed plant response rating (pigweed; [20]): 5
- Redroot pigweed plant response rating (pigweed; [21]): 6
- Plant response rating, Redroot pigweed (pigweed; [22]): 7
- Rape plant response rating (rape; [17]): 0
- Rape plant response rating (rape; [3]): 0
- Rape plant response rating (rape; [18]): 0
- Rape plant response rating (rape; [6]): 10
- Rape plant response rating (rape; [19]): 0
- Rape plant response rating (rape; [20]): 2
- Rape plant response rating (rape; [21]): 8
- Plant response rating, Rape (rape; [22]): 2
- Giant foxtail plant response rating (giant foxtail; [17]): 2
- Giant foxtail plant response rating (giant foxtail; [3]): 9
- Giant foxtail plant response rating (giant foxtail; [18]): 10
- Giant foxtail plant response rating (giant foxtail; [6]): 10
- Giant foxtail plant response rating (giant foxtail; [19]): 2
- Giant foxtail plant response rating (giant foxtail; [20]): 5
- Giant foxtail plant response rating (giant foxtail; [21]): 10
- Plant response rating, Giant foxtail (giant foxtail; [22]): 7
- Morningglory plant response rating (morningglory; [17]): 2
- Morningglory plant response rating (morningglory; [3]): 0
- Morningglory plant response rating (morningglory; [18]): 0
- Morningglory plant response rating (morningglory; [6]): 0
- Morningglory plant response rating (morningglory; [19]): 3
- Morningglory plant response rating (morningglory; [20]): 6
- Morningglory plant response rating (morningglory; [21]): 0
- Plant response rating, Morningglory (morningglory; [22]): 8

SMILES: C#CC(C)n1c(=O)on(C(=O)N(c2ccccc2)C(C)C)c1=O (stereo not drawn) [Compound 609]
- Plant response rating, Redroot pigweed (pigweed; [1]): 0
- Plant response rating, Redroot pigweed (pigweed; [23]): 0
- Redroot pigweed plant response rating (pigweed; [24]): 2
- Plant response rating, Redroot pigweed (pigweed; [10]): 9
- Redroot pigweed plant response rating (pigweed; [11]): 8
- Plant response rating, Redroot pigweed (pigweed; [25]): 10
- Plant response rating, Rape (rape; [1]): 0
- Plant response rating, Rape (rape; [23]): 0
- Rape plant response rating (rape; [24]): 1
- Plant response rating, Rape (rape; [10]): 3
- Rape plant response rating (rape; [11]): 0
- Rape plant response rating (rape; [12]): 0
- Plant response rating, Rape (rape; [25]): 10
- Plant response rating, Giant foxtail (giant foxtail; [1]): 6
- Plant response rating, Giant foxtail (giant foxtail; [23]): 9
- Giant foxtail plant response rating (giant foxtail; [24]): 9
- Plant response rating, Giant foxtail (giant foxtail; [10]): 9
- Giant foxtail plant response rating (giant foxtail; [11]): 10
- Giant foxtail plant response rating (giant foxtail; [12]): 10
- Plant response rating, Giant foxtail (giant foxtail; [25]): 10
- Plant response rating, Morningglory (morningglory; [1]): 8
- Plant response rating, Morningglory (morningglory; [23]): 10
- Morningglory plant response rating (morningglory; [24]): 10
- Plant response rating, Morningglory (morningglory; [10]): 10
- Morningglory plant response rating (morningglory; [11]): 0
- Morningglory plant response rating (morningglory; [12]): 0
- Plant response rating, Morningglory (morningglory; [25]): 5

SMILES: Cc1ccc(-n2c(=O)on(C(=O)N(c3ccc(F)cc3F)C(C)C)c2=O)c(C)c1 [Compound 24]
- Redroot pigweed plant response rating (pigweed; [1]): 0
- Redroot pigweed plant response rating (pigweed; [2]): 6
- Plant response rating, Redroot pigweed (pigweed; [4]): 2
- Plant response rating, Redroot pigweed (pigweed; [5]): 6
- Plant response rating, Redroot pigweed (pigweed; [6]): 6
- Redroot pigweed plant response rating (pigweed; [26]): 9
- Redroot pigweed plant response rating (pigweed; [8]): 2
- Redroot pigweed plant response rating (pigweed; [27]): 6
- Rape plant response rating (rape; [1]): 0
- Rape plant response rating (rape; [2]): 0
- Plant response rating, Rape (rape; [4]): 0
- Plant response rating, Rape (rape; [5]): 0
- Plant response rating, Rape (rape; [6]): 0
- Rape plant response rating (rape; [26]): 1
- Rape plant response rating (rape; [8]): 0
- Rape plant response rating (rape; [27]): 2
- Giant foxtail plant response rating (giant foxtail; [1]): 0
- Giant foxtail plant response rating (giant foxtail; [2]): 3
- Plant response rating, Giant foxtail (giant foxtail; [4]): 6
- Plant response rating, Giant foxtail (giant foxtail; [5]): 7
- Plant response rating, Giant foxtail (giant foxtail; [6]): 9
- Giant foxtail plant response rating (giant foxtail; [26]): 9
- Giant foxtail plant response rating (giant foxtail; [8]): 2
- Giant foxtail plant response rating (giant foxtail; [27]): 8
- Morningglory plant response rating (morningglory; [1]): 9
- Morningglory plant response rating (morningglory; [2]): 10
- Plant response rating, Morningglory (morningglory; [4]): 0
- Plant response rating, Morningglory (morningglory; [5]): 0
- Plant response rating, Morningglory (morningglory; [6]): 0
- Morningglory plant response rating (morningglory; [26]): 0
- Morningglory plant response rating (morningglory; [8]): 9

SMILES: CC(C)N(C(=O)n1oc(=O)n(N2CCOCC2)c1=O)c1ccc(F)cc1 [Compound 385]
- Plant response rating, Redroot pigweed (pigweed; [15]): 0
- Plant response rating, Redroot pigweed (pigweed; [9]): 0
- Plant response rating, Redroot pigweed (pigweed; [11]): 2
- Redroot pigweed plant response rating (0 to 10 scale) (pigweed; Preemergence, Rate 125 g/ha): 7
- Redroot pigweed plant response rating (pigweed; [6]): 7
- Redroot pigweed plant response rating (pigweed; [25]): 10
- Redroot pigweed plant response rating (pigweed; [16]): 0
- Plant response rating, Redroot pigweed (pigweed; [28]): 0
- Plant response rating, Rape (rape; [15]): 0
- Plant response rating, Rape (rape; [9]): 0
- Plant response rating, Rape (rape; [11]): 0
- Rape plant response rating (0 to 10 scale) (rape; Preemergence, Rate 125 g/ha): 0
- Rape plant response rating (rape; [6]): 0
- Rape plant response rating (rape; [25]): 4
- Rape plant response rating (rape; [16]): 0
- Plant response rating, Rape (rape; [28]): 0
- Plant response rating, Giant foxtail (giant foxtail; [15]): 9
- Plant response rating, Giant foxtail (giant foxtail; [9]): 9
- Plant response rating, Giant foxtail (giant foxtail; [11]): 3
- Giant foxtail plant response rating (0 to 10 scale) (giant foxtail; Preemergence, Rate 125 g/ha): 10
- Giant foxtail plant response rating (giant foxtail; [6]): 10
- Giant foxtail plant response rating (giant foxtail; [25]): 10
- Giant foxtail plant response rating (giant foxtail; [16]): 7
- Plant response rating, Giant foxtail (giant foxtail; [28]): 9
- Plant response rating, Morningglory (morningglory; [15]): 1
- Plant response rating, Morningglory (morningglory; [9]): 2
- Plant response rating, Morningglory (morningglory; [11]): 0
- Morningglory plant response rating (0 to 10 scale) (morningglory; Preemergence, Rate 125 g/ha): 0
- Morningglory plant response rating (morningglory; [6]): 0
- Morningglory plant response rating (morningglory; [25]): 2
- Morningglory plant response rating (morningglory; [16]): 1
- Plant response rating, Morningglory (morningglory; [28]): 5
